Data as given in patent publication US9938335B2, “Glucagon and GLP-1 co-agonist compounds” (Eli Lilly and Company, priority 2015, dated 2018).
Values after ≈ are worked out from the molar mass of the structure shown. Where two headings read alike, the source gives them in different places. Marks after values point to notes of the source that are not given here. Starred links: 1 amine or outer side, 2 acyl side, 3 side chain; linkers in the order of their positions; H or OH if unused. Non-standard residues stand in square brackets, D forms with d. Residues, ends and D or L forms follow the SMILES beside them. Groups on a side chain read outwards from the residue. *: point of attachment. C18 diacid = O=C(O)CCCCCCCCCCCCCCCCC(=O)*; γGlu = O=C(O)[C@H](CCC(=O)[*:2])N[*:1]; AEEA = NCCOCCOCC(=O)O; Aib = CC(C)(N)C(=O)O

Legend:
DIO mice (C57BL/6) [1] = test: Chronic treatment in DIO mice (body weight, fat, food intake); type: in vivo, mouse
Summary of the method: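 C57BL/6 DIO mice aged 5–6 months, individually housed and randomized (N=7/group) on body weight and NMR fat mass, received SC injections on Days 1, 4, 7, 10 and 13. Body weight and food intake were measured before each injection, with fat mass re-measured by NMR at study end. Percent body-weight change was tested by ANOVA/Dunnett vs vehicle (p≤0.05).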

hGLP-1-R = hGLP-1-R (Homo sapiens, UniProt P43220); test: hGLP-1R Binding Assay (SPA radioligand competition, 293HEK membranes); parameters: expressed in transfected cells; host or cells: 293HEK, stably transfected with plasmid phD, Hygromycin-selected; crude plasma membranes; conditions: read-out: Ki, nM ± SEM at the hGLP-1-R
Chain of hGLP-1-R (P43220 24-463): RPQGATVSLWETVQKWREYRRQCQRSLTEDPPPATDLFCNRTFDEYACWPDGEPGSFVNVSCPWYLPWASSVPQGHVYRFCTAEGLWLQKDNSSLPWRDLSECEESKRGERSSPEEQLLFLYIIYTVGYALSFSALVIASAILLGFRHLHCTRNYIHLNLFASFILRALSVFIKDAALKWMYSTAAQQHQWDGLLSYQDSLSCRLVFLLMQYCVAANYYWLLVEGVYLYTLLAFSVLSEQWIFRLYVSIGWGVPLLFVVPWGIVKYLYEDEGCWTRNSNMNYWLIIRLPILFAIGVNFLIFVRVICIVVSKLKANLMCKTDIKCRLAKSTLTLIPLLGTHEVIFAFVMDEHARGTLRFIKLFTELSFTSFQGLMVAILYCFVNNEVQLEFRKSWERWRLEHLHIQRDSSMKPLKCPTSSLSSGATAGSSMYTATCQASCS

Human Gcg-R = molecular target: T1, Human Gcg-R (Homo sapiens, UniProt P47871); test: Functional hGcg-R assay (cAMP HTRF, HEK-293 clonal cell line); type: cell-based
T1 construct: expressed in transfected cells; host or cells: HEK-293 clonal cell line over-expressing the receptor
T1 sequence (P47871 26-477): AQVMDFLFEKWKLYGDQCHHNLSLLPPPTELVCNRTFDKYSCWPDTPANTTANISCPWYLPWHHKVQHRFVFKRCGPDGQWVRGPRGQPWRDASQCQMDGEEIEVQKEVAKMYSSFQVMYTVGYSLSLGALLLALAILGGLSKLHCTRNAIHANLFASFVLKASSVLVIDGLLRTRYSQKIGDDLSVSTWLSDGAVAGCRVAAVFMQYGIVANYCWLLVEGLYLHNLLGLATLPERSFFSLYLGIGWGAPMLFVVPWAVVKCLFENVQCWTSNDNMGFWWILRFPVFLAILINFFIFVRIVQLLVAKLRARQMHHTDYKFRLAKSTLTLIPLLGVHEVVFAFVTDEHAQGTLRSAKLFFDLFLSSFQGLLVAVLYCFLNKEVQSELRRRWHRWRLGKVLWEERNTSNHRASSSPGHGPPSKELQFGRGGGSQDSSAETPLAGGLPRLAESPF
Procedure: After a 60 minute incubation at room temperature, the resulting increase in intracellular cAMP (adenosine 3′,5′-cyclic monophosphate) is quantitatively determined using the CisBio cAMP Dynamic 2 HTRF Assay Kit (62AM4PEJ). cAMP levels within the cell are detected by adding the cAMP-d2 conjugate in cell lysis buffer (20 μl) followed by the antibody anti-cAMP-Eu^3+-Cryptate, also in cell lysis buffer (20 μl).
A relative EC50 value and percent top (Emax) are derived by non-linear regression analysis using the percent maximal response vs. the concentration of peptide added, fitted to a four-parameter logistic equation (Genedata Screener®).
Means for EC50 are expressed as Geometric means±standard error of the mean (SEM) with the number of replicates (n) indicated in parenthesis. Means for Emax are expressed as the arithmetic mean±standard error. ND signifies that agonist activity was not detected.

DIO mice (C57BL/6) [2] = test: Glycemic control in DIO mice; type: in vivo, mouse; conditions: for Blood glucose (mg/dL) post-injection, Mean: male DIO mice, 25 nmol/kg sc once
Procedure: Five to six months old male DIO mice (C57BL/6) from Taconic Biosciences are used in this study. Animals are individually housed in a temperature-controlled (24° C.) facility with a 12 hour light/dark cycle (lights on 6:00), and free access to food and water. After two weeks acclimation to the facility, the mice are randomized to treatment groups (n=7/group) based on their body weight and blood glucose. Mice are injected subcutaneously once with vehicle or compounds (25 nmol/kg). Blood glucose is monitored 2 and 8 hours post-injection and then once a day at 08:00 for 4 days. OGTTs are performed at 44 and 78 hours post the peptide injection. Statistics are analyzed using ANOVA with Dunnett's comparison by JMP 6. Significance is denoted at p≤0.05 vs vehicle.

hGcg-R = hGcg-R (Homo sapiens, UniProt P47871); test: hGcg-R Binding Assay (SPA radioligand competition, 293HEK membranes); conditions: read-out: Ki, nM ± SEM at the hGcg-R
Chain of hGcg-R (P47871 26-477): as above

[3] = Viscosity (Rheosense mVroc Viscometer); type: physicochemical; conditions: approximately 10 mg/mL peptide in 10 mM Tris + 3 mg/mL m-cresol at pH 8.0; 25° C.; shear rate 1934 s^−1
Procedure: Viscosity of compounds of the present invention is measured in a Rheosense mVroc Viscometer with the following settings:
(a) Syringe size: 500 μL syringe
(b) Flow Rate: 100 μL/min flow rate
(c) Average Temperature: 25° C.
(d) Shear Rate: 1934 s^−1
Dry powder (compound) is weighed out, dissolved in water as a cloudy precipitate, and titrated to approximately pH 8.0 with 1N NaOH. The solution is sonicated and swirled by hand until peptide is in solution. Samples are sterile filtered (0.22 μm PVDF filters). Samples are then analyzed by UV-Vis to assess stock solution concentrations. Solutions are diluted to final concentration using 3× m-cresol in 10 mM Tris pH 8.0 buffer to final concentrations of approximately 10 mg/mL peptide by weight in 10 mM Tris+3 mg/mL m-cresol at pH 8.0. Samples were filtered through 0.22 μm filters immediately prior to viscosity analysis. 25 μL of sample are removed to verify concentration by RP-HPLC before and after analysis.
Water and buffer control samples are measured before and after each sample is analyzed. The instrument is washed with buffer (3×) in between analysis of each sample. The samples are loaded into individual syringes and analyzed. The first measurement is not included in the final calculation to allow for equilibration with the system. Samples are then analyzed in triplicate (n=3).
The viscosity of Compounds 1-4 was measured essentially as described in this assay.

[4] = Solubility (RP-HPLC and HPLC-SEC, 1 week at 4° C.); type: physicochemical
Procedure: Solubility of compounds of the present invention is measured in an Agilent 1100 HPLC, an Agilent 1200 HPLC and a Nanodrop 2000. The following HPLC columns are used:
(a) RP-HPLC: Waters Symmetry Shield C18, 3.6 um, 4.6×100 mm
(b) HPLC-SEC: Tosoh Biosciences, TSK2000SWXL […]
All peptide concentrations are made at 10 mg/mL in the following:
(a) 10 mM Tris pH 8.0+3 mg/mL m-cresol
(b) 10 mM Tris pH 8.0+3 mg/mL m-cresol+150 mM NaCl
(c) 10 mM Tris pH 8.0+3 mg/mL m-cresol+0.02% Tween-20
5 mL of 10 mg/mL peptide dissolved in 10 mM Tris at pH 8.0 is concentrated to approximately 20 mg/mL using Amicon-ultra 3 kDa MWCO devices. The solution is filtered using Millivex 0.22 μM filters (PVDF membrane) and the final concentration is measured by the NanoDrop spectrometer. This stock solution is used to formulate to the final conditions stated above using 3× m-cresol, 10× NaCl, and 100× Tween-20 stock solutions. A 10 mg/mL PBS solution is also prepared by dissolving directly at 5 mg/mL and concentrating using Amicon-ultra 3 kDa MWCO devices.
Each solution is placed in a refrigerator at 4° C. for 1 week, with analysis by RP-HPLC to assess concentration and HPLC-SEC to assess HMW species formation. Analyses completed at T-0 week and T-1 week.
The solubility of Compounds 1-4 was measured essentially as described in this assay.

[5] = 15 nmol/kg sc every three days for 15 days
[6] = 30 nmol/kg sc every three days for 15 days

Ki (hGLP-1-R): 8.68 ± 1.6 nM | Emax (Human Gcg-R; HEK293): 104 ± 5% | EC50 (Human Gcg-R; cAMP, 60 minute incubation, 0.25% FBS, 0.05% BSA, geometric mean, read-out: Human Gcg-R EC50, nM ± SEM, (n)): 15.3 ± 2.2 nM | Ki (hGcg-R): 37.3 ± 4.2 nM | 500 μL syringe Viscosity [3]: 1.03 cP or mPa-s | solubility at 1 week ([4]; 10 mM Tris pH 8.0 + 3 mg/mL m-cresol + 0.02% Tween-20, Tris pH 8 + 3 mg/mL m-cresol + 0.02% Tween-20): 10 mg/mL | solubility at 1 week ([4]; 10 mM Tris pH 8.0 + 3 mg/mL m-cresol + 150 mM NaCl, Tris pH 8 + 3 mg/mL m-cresol + 150 mm NaCl): 10 mg/mL | solubility at 1 week ([4]; 10 mM Tris pH 8.0 + 3 mg/mL m-cresol, Tris pH 8 + 3 mg/mL m-cresol): 10 mg/mL | solubility at 1 week ([4]; PBS pH 7.4, pH 7.4, read-out: solubility in PBS, pH 7.4): 10 mg/mL (≈ 2160 µM)
Structure (SMILES): CC(C)C[C@H](NC(=O)[C@H](CC(C)C)NC(=O)[C@H](Cc1c[nH]c2ccccc12)NC(=O)[C@H](CCC(=O)O)NC(=O)[C@@H](NC(=O)[C@H](Cc1ccccc1)NC(=O)[C@H](CCC(=O)O)NC(=O)[C@H](CCCCNC(=O)COCCOCCNC(=O)COCCOCCNC(=O)CC[C@H](NC(=O)CC[C@H](NC(=O)CCCCCCCCCCCCCCCCC(=O)O)C(=O)O)C(=O)O)NC(=O)[C@H](C)NC(=O)[C@H](CCCCN)NC(=O)[C@H](CCCCN)NC(=O)[C@H](CCC(=O)O)NC(=O)[C@H](CC(=O)O)NC(=O)[C@H](CC(C)C)NC(=O)[C@H](Cc1ccc(O)cc1)NC(=O)[C@H](CCCCN)NC(=O)[C@H](CO)NC(=O)[C@H](Cc1ccc(O)cc1)NC(=O)[C@H](CC(=O)O)NC(=O)[C@H](CO)NC(=O)[C@@H](NC(=O)[C@H](Cc1ccccc1)NC(=O)[C@@H](NC(=O)CNC(=O)[C@H](CCC(N)=O)NC(=O)C(C)(C)NC(=O)[C@@H](N)Cc1c[nH]cn1)[C@@H](C)O)[C@@H](C)O)C(C)C)C(=O)N[C@@H](CO)C(=O)NCC(=O)NCC(=O)N1CCC[C@H]1C(=O)N[C@@H](CO)C(=O)N[C@@H](CO)C(=O)NCC(N)=O [Compound 3] (H-H[Aib]QGTFTSDYSKYLDEKKAK([AEEA-AEEA-γGlu-γGlu-C18 diacid])EFVEWLLSGGPSSG-NH2; N-terminus assumed)
Body Fat (% change vs. vehicle from Day 1) (DIO mice (C57BL/6) [1]; [5]): −32* % | Body Weight (% change vs. vehicle from Day 1) (DIO mice (C57BL/6) [1]; [5]): −17* % | Body Fat (% change vs. vehicle from Day 1) (DIO mice (C57BL/6) [1]; [6]): −67* % | Body Weight (% change vs. vehicle from Day 1) (DIO mice (C57BL/6) [1]; [6]): −37* % | 44 hours Glucose AUC (% of Vehicle) (DIO mice (C57BL/6) [2]; OGTT 44 hours post-injection, 25 nmol/kg sc): 35* % of Vehicle | 78 hours Glucose AUC (% of Vehicle) (DIO mice (C57BL/6) [2]; OGTT 78 hours post-injection, 25 nmol/kg sc): 76* % of Vehicle | glucose excursions post an oral glucose challenge (DIO mice (C57BL/6) [2]; OGTTs at 44 and 78 hours post injection, 25 nmol/kg): lower glucose excursions post an oral glucose challenge at 44 hour | Blood glucose (mg/dL) post-injection, Mean (DIO mice (C57BL/6) [2]; 2 hours post-injection): 173.4 mg/dL | Blood glucose (mg/dL) post-injection, Mean (DIO mice (C57BL/6) [2]; 8 hours post-injection): 81.4 mg/dL | Blood glucose (mg/dL) post-injection, Mean (DIO mice (C57BL/6) [2]; 24 hours post-injection): 96.6 mg/dL | Blood glucose (mg/dL) post-injection, Mean (DIO mice (C57BL/6) [2]; 48 hours post-injection): 95.8 mg/dL | Blood glucose (mg/dL) post-injection, Mean (DIO mice (C57BL/6) [2]; 72 hours post-injection): 104.7 mg/dL | Blood glucose (mg/dL) post-injection, Mean (DIO mice (C57BL/6) [2]; 96 hours post-injection): 141.1 mg/dL | HMW species formation by SEC-HPLC ([4]; 1 week at 4° C.): No observed HMW species formation by SEC-HPLC; | visible precipitation or phase separation ([4]; after 1 week storage at 4° C.): No visible precipitation or phase separation observed after 1 week
